Key:
Hepatitis C virus [1] = test: Antiviral activity against HCV genotype 1b harboring wild type NS5B infected in human HuH7 cells assessed as inhibition of viral RNA replication after 5 days by RT-PCR method; type: functional, cell-based, Hepacivirus hominis; conditions: Huh-7, 120 h
[2] = Cytotoxicity against human HuH7 cells assessed as inhibition of cell proliferation after 4 days by MTS assay; type: cell-based, Huh-7
[3] = Cytotoxicity against human PBMC assessed as inhibition of cell proliferation after 5 days by MTT assay; type: cell-based
[4] = Cytotoxicity against human CEM cells assessed as inhibition of cell proliferation after 4 days by MTT assay; type: cell-based, CCRF-CEM
[5] = Cytotoxicity against African green monkey Vero cells assessed as inhibition of cell proliferation after 3 days by MTT assay; type: cell-based; conditions: chlorocebus sabaeus
Hepatitis C virus [6] = test: Antiviral activity against HCV genotype 1a infected in human HuH7 cells assessed as inhibition of viral RNA replication after 96 hrs by RT-PCR method; type: functional, cell-based, Hepacivirus hominis; conditions: subtype 1a, Huh-7, 96 h
Hepatitis C virus [7] = test: Antiviral activity against HCV genotype 1b infected in human HuH7 cells assessed as inhibition of viral RNA replication after 96 hrs by RT-PCR method; type: functional, cell-based, Hepacivirus hominis; conditions: Huh-7, 96 h
Hepatitis C virus [8] = test: Antiviral activity against HCV genotype 2a/k infected in human HuH7 cells assessed as inhibition of viral RNA replication after 96 hrs by RT-PCR method; type: functional, cell-based, Hepacivirus hominis; conditions: Huh-7, 96 h
Hepatitis C virus [9] = test: Antiviral activity against HCV genotype 2b infected in human HuH7 cells assessed as inhibition of viral RNA replication after 96 hrs by RT-PCR method; type: functional, cell-based, Hepacivirus hominis; conditions: Huh-7, 96 h
Hepatitis C virus [10] = test: Antiviral activity against HCV genotype 3a infected in human HuH7 cells assessed as inhibition of viral RNA replication after 96 hrs by RT-PCR method; type: functional, cell-based, Hepacivirus hominis; conditions: Huh-7, 96 h
Hepatitis C virus [11] = test: Antiviral activity against HCV genotype 4 infected in human HuH7 cells assessed as inhibition of viral RNA replication after 96 hrs by RT-PCR method; type: functional, cell-based, Hepacivirus hominis; conditions: genotype 4, Huh-7, 96 h
Hepatitis C virus [12] = test: Antiviral activity against HCV genotype 1b harboring NS5B S282T mutant infected in human HuH7 cells assessed as inhibition of viral RNA replication after 4 days by luciferase reporter gene assay; type: functional, cell-based, Hepacivirus hominis; conditions: Huh-7, 96 h
Hepatitis C virus [13] = test: Selectivity ratio of EC50 for HCV genotype 1b harboring NS5B S282T mutant to EC50 for HCV genotype 1b harboring wild type NS5B; type: functional, Hepacivirus hominis
Hepatitis C virus [14] = test: Selectivity ratio of EC90 for HCV genotype 1b harboring NS5B S282T mutant to EC90 for HCV genotype 1b harboring wild type NS5B; type: functional, Hepacivirus hominis
[15] = tested on: cytochrome c oxidase subunit 2 DNA (mitochondrial DNA) levels; test: Mitochondrial toxicity in human HepG2 cells assessed as inhibition of cytochrome c oxidase subunit 2 DNA levels at 50 uM measured on day 14 by RT-PCR method relative to nuclear beta-actin DNA levels; type: cell-based
nuclear DNA levels [16] = test: Cytotoxicity against human HepG2 cells assessed as inhibition of nuclear DNA levels at 50 uM measured on day 14 by RT-PCR method relative to nuclear beta-actin DNA levels; type: cell-based; conditions: read-out: INH
[17] = tested on: cytochrome c oxidase subunit 2 DNA (mitochondrial DNA) levels; test: Mitochondrial toxicity in human HepG2 cells assessed as inhibition of cytochrome c oxidase subunit 2 DNA levels measured on day 14 by RT-PCR method; type: cell-based
HepG2 [18] = test: Cytotoxicity against human HepG2 cells assessed as inhibition of nuclear DNA levels measured on day 14 by RT-PCR method; conditions: HepG2, 336 h
HepG2 [19] = test: Mitochondrial toxicity in human HepG2 cells assessed as cytochrome c oxidase subunit 2 DNA levels at 10 uM measured on day 14 by RT-PCR method relative to nuclear beta-actin DNA levels; conditions: hepg2, 10 µM
HepG2 [20] = test: Mitochondrial toxicity in human HepG2 cells assessed as cytochrome c oxidase subunit 2 DNA levels at 50 uM measured on day 14 by RT-PCR method relative to nuclear beta-actin DNA levels; type: cell-based; conditions: hepg2, 50 µM
HepG2 [21] = test: Mitochondrial toxicity in human HepG2 cells assessed as lactic acid production at 10 uM measured on day 14 by spectrophotometric method relative to control; type: cell-based; conditions: hepg2, 10 µM
HepG2 [22] = test: Mitochondrial toxicity in human HepG2 cells assessed as lactic acid production at 50 uM measured on day 14 by spectrophotometric method relative to control; type: cell-based; conditions: hepg2, 50 µM
[23] = Cytotoxicity against human primary BMNC cells up to 50 uM measured on day 14; type: cell-based
[24] = Prodrug conversion in human HuH7 cells assessed as increase in nucleoside 5' triphosphate levels at 50 uM after 4 hrs by LC-MS/MS analysis relative to sofosbuvir; type: ADME, cell-based; conditions: huh-7, 4 h
[25] = Prodrug conversion in human primary hepatocytes assessed as increase in nucleoside 5' triphosphate levels at 50 uM after 4 hrs by LC-MS/MS analysis relative to sofosbuvir; type: ADME, cell-based, Hepatocyte
[26] = Metabolic stability in human blood assessed as compound remaining at 2 uM after 2 hrs by LC-MS/MS method; type: ADME, tissue-based; conditions: read-out: Stability
[27] = Half life in human intestinal microsomes; type: ADME, Intestine, Microsome
[28] = Clearance in human intestinal microsomes; type: ADME, Intestine, Microsome
[29] = Metabolic stability in human intestinal microsomes assessed as compound remaining after 60 mins; type: ADME, Intestine, Microsome; conditions: read-out: Stability
Cytochrome P450 3A4 = Cytochrome P450 3A4 (Homo sapiens, UniProt P08684); test: Inhibition of human CYP3A4 using ketoconazole […]; type: ADME
Sequence of Cytochrome P450 3A4 (P08684 whole entry): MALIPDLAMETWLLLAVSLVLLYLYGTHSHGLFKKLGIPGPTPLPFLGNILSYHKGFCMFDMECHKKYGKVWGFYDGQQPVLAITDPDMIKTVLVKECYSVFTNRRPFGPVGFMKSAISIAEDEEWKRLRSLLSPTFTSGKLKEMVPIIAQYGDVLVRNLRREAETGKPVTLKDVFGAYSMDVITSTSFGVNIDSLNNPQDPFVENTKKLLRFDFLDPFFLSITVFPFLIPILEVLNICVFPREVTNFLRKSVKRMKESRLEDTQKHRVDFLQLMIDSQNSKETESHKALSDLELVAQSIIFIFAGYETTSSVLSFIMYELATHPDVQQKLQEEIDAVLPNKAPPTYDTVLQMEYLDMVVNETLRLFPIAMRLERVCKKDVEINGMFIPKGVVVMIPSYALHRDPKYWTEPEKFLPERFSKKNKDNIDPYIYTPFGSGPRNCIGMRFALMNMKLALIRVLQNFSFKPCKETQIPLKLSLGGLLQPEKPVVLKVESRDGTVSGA

Cytochrome P450 2C9 = Cytochrome P450 2C9 (Homo sapiens, UniProt P11712); test: Inhibition of human CYP2C9 using sulfaphenazole […]; type: ADME
Sequence of Cytochrome P450 2C9 (P11712 whole entry): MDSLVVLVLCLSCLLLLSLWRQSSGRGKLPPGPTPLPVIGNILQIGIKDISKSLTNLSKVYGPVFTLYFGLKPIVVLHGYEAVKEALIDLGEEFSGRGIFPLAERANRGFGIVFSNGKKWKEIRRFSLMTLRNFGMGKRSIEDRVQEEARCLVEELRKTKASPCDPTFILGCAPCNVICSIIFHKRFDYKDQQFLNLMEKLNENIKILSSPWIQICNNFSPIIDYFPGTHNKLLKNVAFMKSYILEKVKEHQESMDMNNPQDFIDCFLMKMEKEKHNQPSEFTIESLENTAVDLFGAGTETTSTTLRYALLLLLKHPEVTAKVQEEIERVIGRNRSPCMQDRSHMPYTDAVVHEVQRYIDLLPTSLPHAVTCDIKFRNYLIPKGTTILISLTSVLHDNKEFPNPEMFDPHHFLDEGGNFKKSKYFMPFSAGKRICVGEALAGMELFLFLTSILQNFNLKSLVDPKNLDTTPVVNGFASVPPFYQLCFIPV

Cytochrome P450 1A2 = target: T1, Cytochrome P450 1A2 (Homo sapiens, UniProt P05177); test: Inhibition of human CYP1A2 using alpha-naphthoflavone […]; type: ADME
T1 sequence (P05177 whole entry): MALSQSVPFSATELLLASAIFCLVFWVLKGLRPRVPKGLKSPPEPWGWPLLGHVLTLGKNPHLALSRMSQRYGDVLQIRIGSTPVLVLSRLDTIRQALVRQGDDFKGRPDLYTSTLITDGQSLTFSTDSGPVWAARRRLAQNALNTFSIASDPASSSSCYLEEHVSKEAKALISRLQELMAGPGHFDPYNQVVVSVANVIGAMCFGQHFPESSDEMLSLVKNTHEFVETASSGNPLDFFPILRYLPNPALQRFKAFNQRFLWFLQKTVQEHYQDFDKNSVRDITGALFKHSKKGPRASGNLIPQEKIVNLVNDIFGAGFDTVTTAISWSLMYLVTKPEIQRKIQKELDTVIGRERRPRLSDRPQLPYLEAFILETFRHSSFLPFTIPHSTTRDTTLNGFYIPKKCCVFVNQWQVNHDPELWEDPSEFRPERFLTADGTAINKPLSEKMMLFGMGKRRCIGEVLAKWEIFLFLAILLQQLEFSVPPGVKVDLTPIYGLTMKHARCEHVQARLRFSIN

Cytochrome P450 2D6 = Cytochrome P450 2D6 (Homo sapiens, UniProt P10635); test: Inhibition of human CYP2D6 using quinidine […]; type: ADME
Sequence of Cytochrome P450 2D6 (P10635 whole entry): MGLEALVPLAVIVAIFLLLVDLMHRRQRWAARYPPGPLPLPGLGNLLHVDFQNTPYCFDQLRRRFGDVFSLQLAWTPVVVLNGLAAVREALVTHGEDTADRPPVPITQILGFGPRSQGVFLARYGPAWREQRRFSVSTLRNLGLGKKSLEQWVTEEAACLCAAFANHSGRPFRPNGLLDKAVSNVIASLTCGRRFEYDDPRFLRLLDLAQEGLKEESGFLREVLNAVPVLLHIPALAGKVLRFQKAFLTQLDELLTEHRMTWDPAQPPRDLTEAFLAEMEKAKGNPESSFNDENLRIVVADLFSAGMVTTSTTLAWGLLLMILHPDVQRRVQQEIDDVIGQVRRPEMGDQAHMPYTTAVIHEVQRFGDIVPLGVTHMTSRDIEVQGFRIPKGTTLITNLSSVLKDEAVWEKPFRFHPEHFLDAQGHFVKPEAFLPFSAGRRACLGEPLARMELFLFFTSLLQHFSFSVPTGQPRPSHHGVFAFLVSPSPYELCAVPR

[30] = tested on: cytochrome c oxidase subunit 2 DNA (mitochondrial DNA) levels; test: in vitro; conditions: human, HepG2 cells
nuclear DNA levels [31] = test: in vitro; conditions: human, HepG2 cells
in vitro [32] = conditions: human, liver microsomes
Description: Half life in human liver microsomes at 1 uM by LC-MS/MS analysis

in vitro [33] = conditions: human, liver microsomes; remark: listed apart in the source
Description: Clearance in human liver microsomes at 1 uM by LC-MS/MS analysis

in vitro [34] = conditions: human, liver microsomes; remark: listed apart in the source
Description: Metabolic stability in human liver microsomes assessed as parent compound remaining at 1 uM at 60 mins by LC-MS/MS analysis

CC(C)OC(=O)[C@H](C)NP(=O)(OC[C@H]1O[C@@H](n2ccc(=O)[nH]c2=O)[C@@](F)(Cl)[C@@H]1O)Oc1ccccc1 (mixture of isomers)
EC50 (Hepatitis C virus [1]): 20 to 200 nM | EC90 (Hepatitis C virus [1]): 70 to 400 nM | CC50 at 96 h [2]: > 10000 nM | CC50 at 120 h [3]: > 100000 nM | CC50 at 96 h [4]: > 100000 nM | CC50 at 72 h [5]: > 100000 nM | IC50 (Hepatitis C virus [6]): 130 nM | IC50 (Hepatitis C virus [7]): 150 nM | IC50 (Hepatitis C virus [8]): 50 nM | IC50 (Hepatitis C virus [9]): 90 nM | IC50 (Hepatitis C virus [10]): 150 nM | IC50 (Hepatitis C virus [11]): 170 nM | EC50 (Hepatitis C virus [12]): 70 nM | EC90 (Hepatitis C virus [12]): 200 nM | Ratio EC50 (Hepatitis C virus [13]): 3.5 | Selectivity ratio (Hepatitis C virus [14]): 2.9 | inhibition at 14 days, 50 µM [15]: 27% | cytotoxicity at 14 days, 50 µM (nuclear DNA levels [16]): 13% | IC50 at 14 days [17]: > 50000 nM | IC50 (HepG2 [18]): > 50000 nM | Activity (HepG2 [19]): 130% | Activity (HepG2 [20]): 84% | Activity (HepG2 [21]): 60% | Activity (HepG2 [22]): 56% | Activity [23]: Non-Toxic | fold change (FC) [24]: 2.7 | fold change (FC) [25]: 2.3 | remaining at 2 h, 2 µM [26]: 103% | half-life [27]: 2 h | microsomal CLint [28]: 29 µL/min/mg | remaining at 1 h [29]: 79% | IC50 (Cytochrome P450 3A4): 6800 nM | IC50 (Cytochrome P450 2C9): 25000 nM | IC50 (Cytochrome P450 1A2): > 100000 nM | IC50 (Cytochrome P450 2D6): > 100000 nM | inhibition at 14 days, 10 µM [30]: < 1% | cytotoxicity at 14 days, 10 µM (nuclear DNA levels [31]): < 1% | half-life at 1 µM (in vitro [32]): 0.193 h | microsomal CLint at 1 µM (in vitro [33]): 120 µL/min/mg | remaining at 1 h, 1 µM (in vitro [34]): 4.2%
